Measured values: paper PMC9124820, “In vitro evaluation of fenfluramine and norfenfluramine as victims of drug interactions” (Pharmacology Research & Perspectives, 2022)
Structures can show the parent of a compound that is named as a salt.

Experiments:
CYP2C19 = CYP2C19 (Homo sapiens, UniProt P33261); assay: in vitro; conditions: microsomes
Procedure: (§1) To determine the metabolic role of individual CYP450 enzymes more quantitatively, FFA (1 μM) or nFFA (0.1 μM) was manually incubated in duplicate with human liver microsomes (1 mg protein/mL) for 60 min (FFA), or for 0 and 120 min (nFFA), in the presence of direct‐acting or metabolism‐dependent chemical inhibitors. […] Solvent controls were processed in parallel with each inhibitor. Under the conditions described above, incubations were conducted and reactions terminated at 0 or 120 min. Metabolite formation for chemical inhibitors was normalized over time to metabolite formation in the respective solvent controls for each inhibitor. Assays were conducted in duplicate due to the low biological and technical variability expected in this assay; statistical analysis was not possible with duplicate samples.

P‐gp = P‐gp (Homo sapiens, UniProt P08183); conditions: cited from earlier work
BCRP = target: T1, BCRP (Homo sapiens, UniProt Q9UNQ0); conditions: cited from earlier work
T1 sequence (Q9UNQ0 1-655): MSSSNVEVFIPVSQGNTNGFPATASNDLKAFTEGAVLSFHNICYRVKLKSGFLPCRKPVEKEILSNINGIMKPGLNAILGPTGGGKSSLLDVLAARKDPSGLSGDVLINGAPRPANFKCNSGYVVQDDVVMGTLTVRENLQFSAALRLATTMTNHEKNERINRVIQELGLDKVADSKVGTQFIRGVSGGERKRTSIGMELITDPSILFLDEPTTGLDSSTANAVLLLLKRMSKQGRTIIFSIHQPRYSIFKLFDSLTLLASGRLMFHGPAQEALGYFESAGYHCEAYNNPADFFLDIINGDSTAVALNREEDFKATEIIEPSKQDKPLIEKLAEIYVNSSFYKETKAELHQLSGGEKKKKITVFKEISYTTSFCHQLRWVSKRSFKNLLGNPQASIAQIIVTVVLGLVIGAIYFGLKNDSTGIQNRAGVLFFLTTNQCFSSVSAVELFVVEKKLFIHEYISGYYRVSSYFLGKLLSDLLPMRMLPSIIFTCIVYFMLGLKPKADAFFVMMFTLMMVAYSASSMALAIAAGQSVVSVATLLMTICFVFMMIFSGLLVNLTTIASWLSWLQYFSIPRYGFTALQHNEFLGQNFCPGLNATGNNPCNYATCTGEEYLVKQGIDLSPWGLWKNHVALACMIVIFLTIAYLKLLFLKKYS

CYP1A2 = target: T2, CYP1A2 (Homo sapiens, UniProt P05177); assay: Chemical inhibition of FFA metabolism in human liver microsomes, CYP1A2; type: in vitro ADME; conditions: probe FFA (1 µM), demethylation to nFFA, inhibitor 10 µM, metabolism-dependent, read-out: Reduction in FFA demethylation (percent inhibition by a selective inhibitor)
T2 construct: manually incubated in duplicate with human liver microsomes (1 mg protein/mL); tissue Sekisui XenoTech, LLC; host or cells: pooled human liver microsomes (200 donors)
T2 sequence (P05177 1-516): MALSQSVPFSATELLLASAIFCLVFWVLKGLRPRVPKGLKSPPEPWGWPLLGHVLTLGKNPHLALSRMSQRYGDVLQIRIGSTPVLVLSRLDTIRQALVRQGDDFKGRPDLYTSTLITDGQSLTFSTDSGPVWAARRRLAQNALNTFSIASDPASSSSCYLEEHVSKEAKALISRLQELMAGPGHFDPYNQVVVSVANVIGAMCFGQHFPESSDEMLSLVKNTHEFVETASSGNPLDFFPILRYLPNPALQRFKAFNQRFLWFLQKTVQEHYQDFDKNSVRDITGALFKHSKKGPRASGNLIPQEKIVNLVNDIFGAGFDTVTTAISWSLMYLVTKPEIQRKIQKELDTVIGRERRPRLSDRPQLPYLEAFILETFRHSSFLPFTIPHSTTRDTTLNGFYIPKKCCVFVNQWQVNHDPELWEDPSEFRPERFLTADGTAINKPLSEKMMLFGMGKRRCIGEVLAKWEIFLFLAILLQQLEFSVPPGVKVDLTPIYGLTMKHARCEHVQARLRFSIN
Procedure: as §1

CYP2D6 = CYP2D6 (Homo sapiens, UniProt P10635); assay: in vitro; conditions: microsomes
Procedure: as §1

[1] = Metabolic stability and metabolite identity, rat intestinal S9 fractions; type: in vitro ADME; conditions: FFA incubation, LC-MS/MS; X = identified
Procedure: LC‐MS/MS analyses to assess metabolic stability and identify the transporter substrate were performed using an API 4000 QTRAP mass spectrometer (SCIEX, Framingham, MA) with electrospray ionization in positive mode. Chromatography was performed using an Atlantis dC18 analytical column (100 × 2.1 mm, 5 µm; Waters Corporation, Milford, MA). Mobile phases were 0.2% v/v formic acid in water and 0.2% v/v formic acid in acetonitrile. For metabolic stability experiments, FFA and metabolites were eluted at a flow rate of 0.6 mL/min, with a linear gradient of 20%−80% acetonitrile from 0.30−2.0 min. For transporter substrate experiments, the gradient was slightly modified to achieve suitable chromatography. The mass transitions monitored were 232.0 > 159.0 for FFA and 348.0 > 330.0 for 1ʹ‐OH‐midazolam‐d4 internal standard. […]
FFA (1 or 10 µM) was incubated with liver and intestinal S9 fractions (2 mg protein/mL) at 37 ± 1°C in 0.2‐mL incubation mixtures containing potassium phosphate buffer (50 mM, pH 7.4), magnesium chloride (MgCl2) (3 mM), and EDTA (1 mM, pH 7.4), in the presence or absence of a three‐component cofactor mixture (NADPH‐generating system, uridine diphosphate glucuronic acid (UDPGA) [8 mM], and 3’‐phosphoadenosine 5’‐phosphosulfate [0.5 mM]). […] Supernatant fractions were analyzed by LC‐MS/MS.
To characterize substrate loss and metabolic stability, duplicate samples were analyzed by LC‐MS/MS to determine the change in substrate concentration over the incubation period. The rate constant of elimination (kel, min^−1) was determined from the time course of substrate loss based on single exponential decay (A(t)=A0(‐kelt)) . Half‐life in vitro was determined by the following equation: t1/2 = 0.693/kel. The in vitro intrinsic clearance (CLint) was calculated from the rate constant of elimination as follows: CLintμL/min/mgprotein=kelmin^‐1×incubationvolume(μL)/mgproteinperincubation.
Percent loss of substrate was determined by normalizing the mean analyte peak‐area ratio at each time point to the average of four replicates at the 0‐min time point (100%).

CYP3A4/5 = conditions: inhibitor 0.1, 0.5, 1 µM, direct-acting; FFA 1 μM, human liver microsomes
Procedure: as §1

CYP2C9 = target: T3, CYP2C9 (Homo sapiens, UniProt P11712); assay: Chemical inhibition of FFA metabolism in human liver microsomes, CYP2C9; type: in vitro ADME; conditions: inhibitor 20 µM, metabolism-dependent
T3 construct: manually incubated in duplicate with human liver microsomes (1 mg protein/mL); tissue Sekisui XenoTech, LLC; host or cells: pooled human liver microsomes (200 donors)
Procedure: as §1

CYP2B6 = target: T4, CYP2B6 (Homo sapiens, UniProt P20813); assay: Chemical inhibition of FFA metabolism in human liver microsomes, CYP2B6; type: in vitro ADME; conditions: probe FFA (1 µM), demethylation to nFFA, inhibitor 30 µM, metabolism-dependent, read-out: Reduction in FFA demethylation (percent inhibition by a selective inhibitor)
T4 construct: manually incubated in duplicate with human liver microsomes (1 mg protein/mL); tissue Sekisui XenoTech, LLC; host or cells: pooled human liver microsomes (200 donors)
T4 sequence (P20813 1-491): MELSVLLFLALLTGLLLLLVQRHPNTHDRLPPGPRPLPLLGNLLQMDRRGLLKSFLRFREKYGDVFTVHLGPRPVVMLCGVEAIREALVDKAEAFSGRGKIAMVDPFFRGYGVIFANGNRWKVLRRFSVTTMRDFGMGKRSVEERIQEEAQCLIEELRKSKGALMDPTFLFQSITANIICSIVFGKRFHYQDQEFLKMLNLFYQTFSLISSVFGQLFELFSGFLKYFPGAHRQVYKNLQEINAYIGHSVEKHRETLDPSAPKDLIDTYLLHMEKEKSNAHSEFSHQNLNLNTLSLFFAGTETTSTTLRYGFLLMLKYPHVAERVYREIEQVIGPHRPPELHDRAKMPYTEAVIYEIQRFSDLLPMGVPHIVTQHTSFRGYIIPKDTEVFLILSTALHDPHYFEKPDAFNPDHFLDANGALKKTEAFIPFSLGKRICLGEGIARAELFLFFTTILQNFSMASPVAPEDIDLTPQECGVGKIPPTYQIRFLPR
Procedure: as §1

Chain of P‐gp (P08183 whole entry): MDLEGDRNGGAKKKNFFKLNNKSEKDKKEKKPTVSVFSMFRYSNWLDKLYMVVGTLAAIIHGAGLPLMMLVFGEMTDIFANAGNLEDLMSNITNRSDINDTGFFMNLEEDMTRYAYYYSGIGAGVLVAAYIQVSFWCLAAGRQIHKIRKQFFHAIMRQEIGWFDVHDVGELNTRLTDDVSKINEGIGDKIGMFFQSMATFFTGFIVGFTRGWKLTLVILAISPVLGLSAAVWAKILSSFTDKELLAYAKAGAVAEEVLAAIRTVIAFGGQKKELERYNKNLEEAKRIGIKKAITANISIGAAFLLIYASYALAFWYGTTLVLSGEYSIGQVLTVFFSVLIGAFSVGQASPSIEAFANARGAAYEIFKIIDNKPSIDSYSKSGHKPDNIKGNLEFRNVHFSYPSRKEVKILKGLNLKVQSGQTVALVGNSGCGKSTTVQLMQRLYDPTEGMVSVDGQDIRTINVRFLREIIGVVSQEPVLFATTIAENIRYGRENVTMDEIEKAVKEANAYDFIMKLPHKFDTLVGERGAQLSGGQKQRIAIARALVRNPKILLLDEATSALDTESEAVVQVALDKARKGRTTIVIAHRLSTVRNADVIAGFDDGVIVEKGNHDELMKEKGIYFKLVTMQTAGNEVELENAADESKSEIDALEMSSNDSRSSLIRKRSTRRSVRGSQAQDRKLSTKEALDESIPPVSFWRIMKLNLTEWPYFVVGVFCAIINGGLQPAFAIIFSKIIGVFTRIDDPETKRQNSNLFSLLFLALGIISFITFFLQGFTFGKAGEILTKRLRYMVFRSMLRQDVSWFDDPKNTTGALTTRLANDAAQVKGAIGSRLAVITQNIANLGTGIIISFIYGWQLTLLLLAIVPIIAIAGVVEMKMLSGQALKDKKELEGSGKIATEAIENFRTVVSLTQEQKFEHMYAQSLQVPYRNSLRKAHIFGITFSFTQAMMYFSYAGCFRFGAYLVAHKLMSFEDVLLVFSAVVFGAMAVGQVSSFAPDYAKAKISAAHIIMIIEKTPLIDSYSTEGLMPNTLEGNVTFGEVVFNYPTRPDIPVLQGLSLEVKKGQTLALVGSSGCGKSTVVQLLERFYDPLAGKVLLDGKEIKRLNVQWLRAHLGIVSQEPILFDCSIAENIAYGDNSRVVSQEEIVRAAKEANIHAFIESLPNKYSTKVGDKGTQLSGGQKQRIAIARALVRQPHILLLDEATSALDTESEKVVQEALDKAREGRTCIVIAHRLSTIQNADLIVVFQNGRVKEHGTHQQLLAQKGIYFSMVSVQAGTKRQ
T3 sequence (P11712 whole entry): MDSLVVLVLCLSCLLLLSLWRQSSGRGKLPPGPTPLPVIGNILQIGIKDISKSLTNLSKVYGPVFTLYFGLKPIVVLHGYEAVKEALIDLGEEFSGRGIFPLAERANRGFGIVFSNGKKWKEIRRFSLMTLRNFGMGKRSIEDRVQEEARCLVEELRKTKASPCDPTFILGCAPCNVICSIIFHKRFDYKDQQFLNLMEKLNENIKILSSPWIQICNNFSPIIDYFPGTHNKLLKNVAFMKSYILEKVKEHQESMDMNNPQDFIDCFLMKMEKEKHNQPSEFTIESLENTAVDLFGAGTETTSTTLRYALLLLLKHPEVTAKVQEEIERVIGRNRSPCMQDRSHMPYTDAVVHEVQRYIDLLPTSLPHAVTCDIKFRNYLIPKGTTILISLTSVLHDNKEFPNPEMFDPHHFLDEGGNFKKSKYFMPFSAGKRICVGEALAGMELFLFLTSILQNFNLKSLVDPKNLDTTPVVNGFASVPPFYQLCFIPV
Chain of CYP2C19 (P33261 whole entry): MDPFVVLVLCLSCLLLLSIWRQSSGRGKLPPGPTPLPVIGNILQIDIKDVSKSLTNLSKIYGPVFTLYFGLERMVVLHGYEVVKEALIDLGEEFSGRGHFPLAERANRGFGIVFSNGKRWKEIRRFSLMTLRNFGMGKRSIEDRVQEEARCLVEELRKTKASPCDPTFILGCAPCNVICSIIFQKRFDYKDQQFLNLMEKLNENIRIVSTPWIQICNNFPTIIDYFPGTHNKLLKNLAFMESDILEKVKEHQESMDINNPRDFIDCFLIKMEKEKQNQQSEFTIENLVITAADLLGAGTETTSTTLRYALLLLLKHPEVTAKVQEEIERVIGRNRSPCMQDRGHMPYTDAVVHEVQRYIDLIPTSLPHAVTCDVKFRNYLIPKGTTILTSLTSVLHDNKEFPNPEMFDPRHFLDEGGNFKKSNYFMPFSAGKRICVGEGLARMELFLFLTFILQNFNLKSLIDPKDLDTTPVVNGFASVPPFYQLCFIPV
Chain of CYP2D6 (P10635 whole entry): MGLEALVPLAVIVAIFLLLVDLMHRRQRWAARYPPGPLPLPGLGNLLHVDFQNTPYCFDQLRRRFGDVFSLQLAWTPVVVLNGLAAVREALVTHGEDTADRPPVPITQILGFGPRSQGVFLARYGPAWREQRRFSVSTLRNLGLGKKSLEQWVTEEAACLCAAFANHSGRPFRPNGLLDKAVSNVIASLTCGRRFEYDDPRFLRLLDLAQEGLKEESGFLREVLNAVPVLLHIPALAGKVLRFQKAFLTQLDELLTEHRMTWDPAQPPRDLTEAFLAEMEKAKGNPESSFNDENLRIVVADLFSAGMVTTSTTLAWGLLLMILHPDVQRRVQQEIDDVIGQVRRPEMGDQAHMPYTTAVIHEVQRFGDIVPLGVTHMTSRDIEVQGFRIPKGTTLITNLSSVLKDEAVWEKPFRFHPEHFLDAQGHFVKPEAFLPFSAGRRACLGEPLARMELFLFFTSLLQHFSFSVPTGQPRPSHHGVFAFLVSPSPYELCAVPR

COc1ccc2nc([S@@+]([O-])Cc3ncc(C)c(OC)c3C)[nH]c2c1 [Esomeprazole, esomeprazole]
Reduction in FFA demethylation (percent inhibition by a selective inhibitor) (CYP2C19; 60 min, 10 µM): 8%
inhibition at 60 min, 10 µM (CYP2C19; Reduction in FFA demethylation (percent inhibition by a selective inhibitor)): < 15%

O=C1NC(=O)C(c2ccccc2)(c2ccccc2)N1 [phenytoin]
substrate capacity for P‐gp (P‐gp): did not show substrate capacity
substrate capacity for BCRP (BCRP): did not show substrate capacity

Cc1nc2c([nH]1)c(=O)n(C)c(=O)n2Cc1ccco1 [Furafylline, furafylline]
inhibition at 60 min, 10 µM (CYP1A2): 32%

C=C[C@H]1C[N@@]2CC[C@H]1C[C@@H]2[C@@H](O)c1ccnc2ccc(OC)cc12 [Quinidine, quinidine]
inhibition at 60 min, 1 µM (CYP2D6): 37%

CC(Cc1cccc(C(F)(F)F)c1)NO (centres unmarked) [C2]
identified in Intestinal S9 fractions, Rat [1]: trace

CC[C@@H](C(N)=O)N1CCCC1=O [levetiracetam]
substrate capacity for P‐gp (P‐gp): did not show substrate capacity
substrate capacity for BCRP (BCRP): did not show substrate capacity

CC(=O)N1CCN(c2ccc(OCC3COC(Cn4ccnc4)(c4ccc(Cl)cc4Cl)O3)cc2)CC1 (centres unmarked) [Ketoconazole, ketoconazole]
Reduction in FFA demethylation (percent inhibition by a selective inhibitor) (CYP3A4/5): None

CCCC(CCC)C(=O)O [valproate]
substrate capacity for P‐gp (P‐gp): did not show substrate capacity
substrate capacity for BCRP (BCRP): did not show substrate capacity

NC(=O)N1c2ccccc2C=Cc2ccccc21 [carbamazepine]
substrate capacity for P‐gp (P‐gp): did not show substrate capacity
substrate capacity for BCRP (BCRP): did not show substrate capacity

O=C(O)COc1ccc(C(=O)c2cccs2)c(Cl)c1Cl [Tienilic acid]
inhibition at 60 min, 20 µM (CYP2C9; human, liver microsomes, probe FFA (1 µM), demethylation to nFFA, read-out: Reduction in FFA demethylation (percent inhibition by a selective inhibitor)): < 15%
Reduction in FFA demethylation (percent inhibition by a selective inhibitor) (CYP2C9; FFA 1 μM): 14%

c1ccc(C2(N3CCCCC3)CCCCC2)cc1 [Phencyclidine, phencyclidine hydrochloride]
inhibition at 60 min, 30 µM (CYP2B6): 42%

CC1(C)O[C@@H]2[C@@H](CO[C@@]3(COS(N)(=O)=O)OC(C)(C)O[C@@H]23)O1 [topiramate]
substrate capacity for P‐gp (P‐gp): did not show substrate capacity
substrate capacity for BCRP (BCRP): did not show substrate capacity

CCC1(c2ccccc2)C(=O)NC(=O)NC1=O [phenobarbital]
substrate capacity for BCRP (BCRP): did not show substrate capacity
